According to PubChem BioAssay (NCI):
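Assay format: 96-well plates, 48-hour exposure. At the GI50, growth is halved. Definition used: TGI = concentration required for complete inhibition of growth.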

Assays:
Assay in all cases: inhibition of tumour cell growth, NCI panel, 48 h
[1] = system: EKVX NSCLC
[2] = system: HOP-92 NSCLC
[3] = system: HT29 colon
[4] = system: NCI-H460 lung
[5] = system: NCI/ADR-RES ovarian
[6] = system: OVCAR-8 ovarian
[7] = system: SF-268 CNS
[8] = system: SNB-19 CNS
[9] = system: U251 CNS
[10] = system: A498 renal

Row | SMILES | TGI [1] | TGI [2] | TGI [3] | TGI [4] | TGI [5] | TGI [6] | TGI [7] | TGI [8] | TGI [9] | TGI [10] | GI50 [1] | GI50 [2] | GI50 [8]
1 | O=S(=O)(/N=C(\NO)Nc1ccc(Cl)cc1)c1cc2ccccc2s1 | 26 µM | 38.8 µM | 35 µM | > 100 µM | 38.7 µM | 30.7 µM | 29.2 µM | 31.2 µM | 29.1 µM | – | – | – | –
2 | CCCCCCCCCCCC[N+]12CC[N+](C)(CC1)CC2 | > 100 µM | 47.7 µM | 51.4 µM | 26.5 µM | – | > 100 µM | 53.3 µM | 38.7 µM | 29.9 µM | – | – | – | –
3 | NC(=O)/N=C/c1c(O)c2ccccc2oc1=O | > 100 µM | > 100 µM | > 100 µM | > 100 µM | – | > 100 µM | > 100 µM | > 100 µM | – | – | – | – | –
4 | CC#COS(=O)(=O)c1ccc(C)cc1 | > 100 µM | – | > 100 µM | > 100 µM | – | > 100 µM | > 100 µM | > 100 µM | > 100 µM | – | – | – | –
5 | CC[C@]12C=CCN3CC[C@@]4(c5cc(Br)c(OC)cc5N(C)[C@H]4[C@@](O)(C(=O)NC(Cc4c[nH]c5ccccc45)C(=O)OC)[C@@H]1O)[C@@H]32 (stereo not given in full) | > 100 µM | > 100 µM | > 100 µM | – | > 100 µM | > 100 µM | > 100 µM | > 100 µM | > 100 µM | – | – | – | –
6 | Cc1ccc(NC(=O)C2C3CCC(O3)C2C(=O)O)cc1 (stereo not given) | > 100 µM | > 92.9 µM | > 64.2 µM | > 100 µM | – | > 100 µM | > 73.2 µM | > 100 µM | > 100 µM | > 75.7 µM | – | – | –
7 | CC(=O)OCC1OC(N=[N+]=[N-])C(OC(C)=O)C(OC(C)=O)C1OC1OC(COC(C)=O)C(OC(C)=O)C(OC(C)=O)C1OC(C)=O (stereo not given) | > 100 µM | – | > 100 µM | > 100 µM | – | > 100 µM | > 100 µM | > 100 µM | > 100 µM | > 100 µM | – | – | –
8 | COc1ccc([C@H]2CC3C(=O)N(c4ccc(OC)cc4)C(=O)C3c3[nH]c4ccccc4c32)cc1 (stereo not given in full) | > 100 µM | 78.4 µM | – | > 100 µM | – | > 100 µM | > 100 µM | > 100 µM | > 100 µM | > 100 µM | – | – | –
9 | Cn1c(=O)c2[nH]c(SC/C(=N/O)c3ccc(Br)cc3)nc2n(C)c1=O | > 100 µM | 4.56 µM | – | – | – | – | – | 8.35 µM | – | – | 2.76 µM | 2.02 µM | 2.94 µM
10 | CSC(C1c2ccccc2N(C)c2[nH]c(=O)n(C)c(=O)c21)S(=O)(=O)c1ccc(C)cc1 (stereo not given) | > 100 µM | > 100 µM | > 100 µM | – | – | > 100 µM | > 100 µM | > 100 µM | > 100 µM | > 100 µM | – | – | –
11 | O=C(CC(C(=O)c1cccs1)c1ccsc1)c1ccc(Cl)s1 (stereo not given) | > 100 µM | – | > 100 µM | > 100 µM | > 100 µM | > 100 µM | > 100 µM | > 100 µM | > 100 µM | > 100 µM | – | – | –
12 | O=S(=O)(c1ccccc1)c1ccc(-c2nc(-c3ccc4c(c3)Sc3ccccc3S4)cs2)cc1 | > 100 µM | 62.9 µM | > 100 µM | > 100 µM | – | > 100 µM | > 100 µM | > 100 µM | > 100 µM | – | – | – | –
13 | Brc1ccc(-c2cc3c(cc2C2SCCS2)OCO3)cc1 | 75.1 µM | – | > 100 µM | > 100 µM | – | > 100 µM | > 100 µM | > 100 µM | > 100 µM | 93.3 µM | – | – | –
14 | COc1ccc(C2=Nc3ccccc3N=C(SC)C2)cc1 | > 100 µM | 61.9 µM | > 100 µM | 71.9 µM | – | > 100 µM | > 100 µM | > 100 µM | > 100 µM | > 100 µM | – | – | –
15 | Cn1cc2c3ccccc3nc-2c2ccccc21 | – | 4.3 µM | 5.35 µM | 4.34 µM | 4.24 µM | 3.42 µM | 6.86 µM | 10.6 µM | 6.51 µM | 3.27 µM | – | – | –
16 | CCCCCCCCCCCCOC1C(COCCN2CCCCC2)OC2OC(C)(C)OC21 (stereo not given) | – | – | 2.53 µM | 3.48 µM | 14.4 µM | 3.41 µM | 6.44 µM | 8.07 µM | 3.48 µM | 29.3 µM | – | – | –
17 | COc1ccc(C2=NNC(=O)c3ccccc3N2c2nc(-c3cccs3)nc3cc(OC)c(OC)cc23)cc1 | > 100 µM | 7.97 µM | – | > 100 µM | > 100 µM | > 100 µM | > 100 µM | > 100 µM | 33.3 µM | 10.5 µM | – | – | –
18 | CCOC(=O)c1cc(C)nc2c1c(=O)n(-c1ccccc1)c(=O)n2CCCCN1CCN(c2ncccn2)CC1 | > 100 µM | > 100 µM | > 100 µM | – | > 100 µM | > 100 µM | > 100 µM | – | > 100 µM | > 100 µM | – | – | –
19 | CN(C)S(=O)(=O)c1nc(Cl)c2[nH]cnc2n1 | > 100 µM | – | > 100 µM | – | > 100 µM | > 100 µM | > 100 µM | > 100 µM | > 100 µM | > 100 µM | – | – | –
20 | C(=N\NC1=NCCN1)/c1ccc2ccccc2c1 | 50.8 µM | 13.3 µM | 30.4 µM | 29.5 µM | 39.4 µM | 35 µM | 47.6 µM | – | 29.8 µM | 28.9 µM | – | – | –
21 | O=C(O)c1nn(-c2ccccc2)nc1-c1nn(-c2ccccc2)nc1C(=O)O | > 100 µM | > 100 µM | > 100 µM | > 100 µM | > 100 µM | > 100 µM | > 100 µM | > 100 µM | > 100 µM | – | – | – | –
22 | COc1ccc(NC(=O)C(=O)Cc2ccc([N+](=O)[O-])c([N+](=O)[O-])c2CC(=O)C(=O)Nc2ccc(OC)cc2OC)c(OC)c1 | > 100 µM | > 100 µM | > 100 µM | > 100 µM | – | > 100 µM | > 100 µM | > 100 µM | > 100 µM | > 100 µM | – | – | –
23 | COc1ccc(/C=C/C(=O)c2ccc(Br)cc2)cc1 | > 100 µM | – | > 100 µM | > 100 µM | > 100 µM | > 100 µM | > 100 µM | > 100 µM | > 100 µM | > 100 µM | – | – | –
